Measured values reported in the NIST ThermoML archive (doi:10.1016/j.fluid.2018.11.035).
Numbers after ± are expanded uncertainties.

Test: wn = mass fraction of the nth substance listed
Settings: 101 kPa, Liquid, Vibrating tube method, w1 = 0.365

**Q.** Which results are given for `OCCO` [1,2-ethanediol] + O?
**A.** mass density (283.15 K): 1059.35 ± 0.11 kg/m3; mass density (293.15 K): 1054.78 ± 0.11 kg/m3; mass density (303.15 K): 1049.78 ± 0.11 kg/m3; mass density (313.15 K): 1044.38 ± 0.1 kg/m3; mass density (323.15 K): 1038.57 ± 0.1 kg/m3; mass density (333.15 K): 1032.23 ± 0.1 kg/m3
